Source: US12533394B2, “Compositions and methods for treating metabolic disorders” (GlycoMantra Inc., priority 2023, dated 2026)

Experiments:
Gal3 [1] = target: T1, Gal3 (Homo sapiens, UniProt P17931); details: Table 1, comparison galectin antagonists; cited from earlier work
Gal3 [2] = target: T1, Gal3; experiment: Solid-phase assay, blocking Gal3 binding (inhibition curves, FIG. 2)
Description: For the purposes of this disclosure, an “inhibition curve” is a graphical representation used in pharmacology and biochemistry to show how an inhibitor affects the activity of an enzyme, a biological process, or the like. Typically, an inhibition curve plots the concentration of an inhibitor on the x-axis and the corresponding reduction in an enzyme activity (or another measurable response) on the y-axis. An inhibition curve may help visualize the relationship between inhibitor concentration and its effectiveness. As a nonlimiting example, an inhibition curve may be used to determine a half-maximal inhibitory concentration or IC50 value. For the purposes of this disclosure, half-maximal inhibitory concentration or IC50 is the concentration of an inhibitor needed to reduce the activity of a receptor or an enzyme by 50%. A small IC50 value typically indicates a stronger binding affinity between an inhibitor and its target, and vice versa. IC50 is a commonly used indication regarding a drug's efficacy and potency and is often used in pharmacological research. For the purposes of this disclosure, drug potency is the amount of a drug needed to produce a given effect. […] It is often measured using the EC50, i.e., the concentration at which 50% of the maximum effect is observed. […]

T1 sequence (P17931 whole entry, species assumed): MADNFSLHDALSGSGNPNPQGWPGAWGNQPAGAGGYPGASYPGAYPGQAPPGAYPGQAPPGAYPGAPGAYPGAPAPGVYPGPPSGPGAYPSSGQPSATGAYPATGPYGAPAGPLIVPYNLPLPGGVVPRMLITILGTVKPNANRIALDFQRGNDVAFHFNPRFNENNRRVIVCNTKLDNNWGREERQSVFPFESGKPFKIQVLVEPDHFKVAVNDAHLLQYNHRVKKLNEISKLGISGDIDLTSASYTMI

Structure (SMILES)	Specificity to Gal3 (Gal3 [1])	IC50 (Gal3 [2])
OC[C@H]1O[C@@H](S[C@@H]2O[C@H](CO)[C@H](O)[C@H](n3cc(-c4cccc(F)c4)nn3)[C@H]2O)[C@H](O)[C@@H](n2cc(-c3cccc(F)c3)nn2)[C@H]1O [TD139]	No	–
CC(=O)N[C@H]1C(O)O[C@H](CO)[C@H](O)[C@@H]1O[C@@H]1O[C@H](CO)[C@H](O)[C@H](O)[C@H]1O (some centres unmarked) [synthetic TFD, Galβ1-3GalNAc]	–	200 µM
